# Columns and labels:
# [1] = test system: FLT3-ITD; assay: FLT3-ITD degradation, immunoblot in MOLM-13 cells; assay type: cell-based, human; conditions: 50 nM, 24 h
# Description: To verify that MA190 and MA191 trigger the depletion of FLT3-ITD and a breakdown of its downstream signaling in both MV4-11 and MOLM-13 cells, we used immunoblotting. Furthermore, we evaluated if the elimination of FLT3-ITD is inherent to the PROTAC activities of MA190 and MA191, or due to their kinase inhibitor moieties using MA68. […] The loss of FLT3-ITD was linked to a reduction of STAT5 and AKT, their phosphorylation, and the auto-phosphorylation of FLT3-ITD in both AML cell systems (Figure 4f,g).
# Figure 4 Biological and biochemical characterization of the FLT3 PROTACs. (a) MV4-11 cells were incubated for 24 h with 50 nM of the indicated compounds. Immunoblotting was performed for the indicated proteins and their phosphorylation (p-) or cleavage (cl.; indicated by arrows); β-actin was used to ensure equal sample loading. (b) MV4-11 cells were treated with the indicated agents and analyzed for early and late apoptosis by flow cytometry. (c) Same as in (b) but treatment for 72 h. (d) MOLM-13 cells were treated with the indicated agents and analyzed for early and late apoptosis by flow cytometry. […] Immunoblots show the expression of the indicated proteins and their phosphorylation (p-); β-actin was used to ensure equal sample loading. All immunoblots show data from at least two independent repetitions and flow cytometry analyses were conducted thrice independently; * […], ** p < 0.01, *** p < 0.001, **** p < 0.0001.
# [2] = in vitro; conditions: human, HEK293 cells
# [3] = molecular target: T1, FLT3-ITD (Homo sapiens, UniProt P36888, INS600HVDFREYEYD); assay: FLT3-ITD degradation, immunoblot in MV4-11 cells; conditions: for FLT3-ITD degradation / reduction/elimination of FLT3-ITD / FLT3-ITD (130 kDa) level relative to untreated cells: MV4-11 cells; for FLT3-ITD degradation / FLT3-ITD (130 kDa) level relative to untreated cells: 50 nM; for FLT3-ITD degradation: 24 h; for inhibition at 0.05 µM: MV4-11, 24 h, read-out: % FLT3-ITD Degradation at 50 nM
# T1 sequence (P36888 with tags, fused parts or gaps INS600HVDFREYEYD): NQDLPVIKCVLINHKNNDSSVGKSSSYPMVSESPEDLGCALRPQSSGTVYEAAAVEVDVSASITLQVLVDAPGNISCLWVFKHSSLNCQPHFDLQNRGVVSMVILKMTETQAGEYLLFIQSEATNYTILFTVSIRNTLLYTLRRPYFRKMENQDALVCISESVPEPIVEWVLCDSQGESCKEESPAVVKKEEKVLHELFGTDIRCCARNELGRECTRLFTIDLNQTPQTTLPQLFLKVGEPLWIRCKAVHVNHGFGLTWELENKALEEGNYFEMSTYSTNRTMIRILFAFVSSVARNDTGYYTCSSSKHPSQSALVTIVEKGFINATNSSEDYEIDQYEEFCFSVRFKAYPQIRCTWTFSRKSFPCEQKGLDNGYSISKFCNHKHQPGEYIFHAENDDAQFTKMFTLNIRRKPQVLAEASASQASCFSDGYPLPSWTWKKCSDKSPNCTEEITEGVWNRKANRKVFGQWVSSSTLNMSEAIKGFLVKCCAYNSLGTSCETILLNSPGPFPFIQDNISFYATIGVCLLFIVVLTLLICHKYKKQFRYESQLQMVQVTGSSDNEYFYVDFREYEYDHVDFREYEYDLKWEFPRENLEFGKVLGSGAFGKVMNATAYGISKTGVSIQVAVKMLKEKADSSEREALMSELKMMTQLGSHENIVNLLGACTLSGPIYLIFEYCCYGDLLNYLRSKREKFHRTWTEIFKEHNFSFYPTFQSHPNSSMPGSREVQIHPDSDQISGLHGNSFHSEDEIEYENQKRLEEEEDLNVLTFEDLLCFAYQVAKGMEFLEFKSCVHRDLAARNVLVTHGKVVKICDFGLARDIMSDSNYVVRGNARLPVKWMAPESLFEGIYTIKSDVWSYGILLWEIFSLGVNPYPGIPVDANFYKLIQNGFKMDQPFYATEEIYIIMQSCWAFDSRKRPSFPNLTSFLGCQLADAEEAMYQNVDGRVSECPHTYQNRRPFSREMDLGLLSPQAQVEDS
# [4] = test system: HEK293 cells; assay: Cytotoxicity in HEK293 cells (Alamar Blue); conditions: 50 µM
# [5] = in vitro; conditions: CD-1, mouse, liver microsomes, pH 7.4
# [6] = Metabolic stability in liver microsomes; conditions: for degraded after 2 h: mouse liver microsomes; for 10 min - compound remaining % / 20 min - compound remaining % / 60 min - compound remaining % / 120 min - compound remaining % / 30 min - compound remaining %: single runs A and B (Table S3)
# [7] = molecular target: MAPK14 (Homo sapiens, UniProt Q16539); assay: KINOMEscan binding assay; parameters: purchased Eurofins DiscoverX Corporation; host or cells: E. coli BL21-derived (T7 phage) or HEK-293
# Protocol: Kinase-tagged T7 phage strains were prepared in an E. coli host derived from the BL21 strain. E. coli were grown to log-phase and infected with T7 phage and incubated with shaking at 32 °C until lysis. The lysates were centrifuged and filtered to remove cell debris. The remaining kinases were produced in HEK-293 cells and subsequently tagged with DNA for qPCR detection. […] The liganded beads were blocked with excess biotin and washed with blocking buffer (SeaBlock (Pierce), 1% BSA, 0.05% Tween 20, 1 mM DTT) to remove unbound ligand and to reduce non-specific binding. […] The compounds were then diluted directly into the assays such that the final concentration of DMSO was 0.9%. All reactions performed in polypropylene 384-well plate. Each was a final volume of 0.02 mL. […] The kinase concentration in the eluates was measured by qPCR.
# [8] = mouse (CD-1) liver microsomes, 25 μM
# MAPK14, sequence (Q16539 whole entry): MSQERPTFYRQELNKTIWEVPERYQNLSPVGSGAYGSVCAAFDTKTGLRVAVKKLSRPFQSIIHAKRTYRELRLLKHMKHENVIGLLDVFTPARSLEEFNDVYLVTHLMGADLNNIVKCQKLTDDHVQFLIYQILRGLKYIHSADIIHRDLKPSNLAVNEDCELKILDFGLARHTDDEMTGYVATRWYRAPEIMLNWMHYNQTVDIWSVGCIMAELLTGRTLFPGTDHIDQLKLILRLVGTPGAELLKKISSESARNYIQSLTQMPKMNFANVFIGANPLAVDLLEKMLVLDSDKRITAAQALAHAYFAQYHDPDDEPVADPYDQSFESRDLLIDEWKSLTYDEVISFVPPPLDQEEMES
SMILES,FLT3-ITD degradation [1],"viability at 24 h, 50 µM [2] [%]",FLT3-ITD degradation [3],cytotoxic effects [4],"remaining at 0 h, 25 µM [5] [%]","remaining at 10 min, 25 µM [5] [%]","remaining at 20 min, 25 µM [5] [%]","remaining at 0.5 h, 25 µM [5] [%]","remaining at 1 h, 25 µM [5] [%]","remaining at 2 h, 25 µM [5] [%]",inhibition at 0.05 µM [3] [%],reduction/elimination of FLT3-ITD [3] [%],FLT3-ITD (130 kDa) level relative to untreated cells [3] [%],"10 min—Compound Remaining % [6, 8] [%]","20 min—Compound Remaining % [6, 8] [%]","30 min—Compound Remaining % [6, 8] [%]","60 min—Compound Remaining % [6, 8] [%]",degraded after 2 h [6] [%],% MAPK- 14 Binding at 1 µM [7] [%],also measured
"CNC(=O)c1cc(Oc2ccc(NC(=O)Nc3cc(C(C)(C)C)on3)cc2)ccn1 [MA68, reference compound]","but not their underlying kinase inhibitor MA68, eliminate FLT3-ITD",11.5 ± 2.2,"but not their underlying kinase inhibitor MA68, eliminate FLT3-ITD",showed cytotoxic effects,,,,,,,,,,,,,,,,
"Cc1ncsc1-c1ccc([C@H](C)NC(=O)[C@@H]2C[C@@H](O)CN2C(=O)[C@@H](NC(=O)[C@H]2CC[C@H](C(=O)N3CCN(CCNC(=O)c4cc(Oc5ccc(NC(=O)Nc6cc(C(C)(C)C)on6)cc5)ccn4)CC3)CC2)C(C)(C)C)cc1 [MA191, 4-(4-(3-(5-(tert-Butyl)isoxazol-3-yl)ureido)phenoxy)-N-(2-(4-(trans-4-(((S)-1-((2S,4R)-4-hydroxy-2-(((S)-1-(4-(4-methylthiazol-5-yl)phenyl)ethyl)carbamoyl)pyrrolidin-1-yl)-3,3-dimethyl-1-oxobutan-2-yl)carbamoyl)cyclohexanecarbonyl)piperazin-1-yl)ethyl)picolinamide]",eliminate FLT3-ITD,86.9 ± 5.8,eliminate FLT3-ITD,no cytotoxic effects,100,99,96,94,93,91,95,> 95,5,98.2 ± 0.9,97.0 ± 1.0,95.0 ± 1.2,91.2 ± 1.8,10.8,89 ± 2,"120 min—Compound Remaining % ([6]; mouse (CD-1) liver microsomes, 25 μM, 120 min): 89.2 ± 1.0%; 10 min - compound remaining % ([6]; listed as MA191_B): 97%; 20 min - compound remaining % ([6]; listed as MA191_B): 98%; 60 min - compound remaining % ([6]; listed as MA191_B): 89%; 120 min - compound remaining % ([6]; 120 min, listed as MA191_B): 88%"
"Cc1ncsc1-c1ccc([C@H](C)NC(=O)[C@@H]2C[C@@H](O)CN2C(=O)[C@@H](NC(=O)[C@H]2CC[C@H](C(=O)N3CCC(CCNC(=O)c4cc(Oc5ccc(NC(=O)Nc6cc(C(C)(C)C)on6)cc5)ccn4)CC3)CC2)C(C)(C)C)cc1 [MA190, 4-(4-(3-(5-(tert-Butyl)isoxazol-3-yl)ureido)phenoxy)-N-(2-(1-(trans-4-(((S)-1-((2S,4R)-4-hydroxy-2-(((S)-1-(4-(4-methylthiazol-5-yl)phenyl)ethyl)carbamoyl)pyrrolidin-1-yl)-3,3-dimethyl-1-oxobutan-2-yl)carbamoyl)cyclohexanecarbonyl)piperidin-4-yl)ethyl)picolinamide]",eliminate FLT3-ITD,99.1 ± 3.1,eliminate FLT3-ITD,no cytotoxic effects,100,92,90,95,96,91,95,> 95,5,91.5 ± 0.4,88.5 ± 1.2,93.9 ± 0.6,,8.0,90 ± 2,"20 min - compound remaining % ([6]; listed as MA190_B): 87%; 30 min - compound remaining % ([6]; listed as MA190_B): 93%; 120 min - compound remaining % ([6]; 120 min, listed as MA190_B): 93%"
"Cc1ncsc1-c1ccc([C@H](C)NC(=O)[C@@H]2C[C@@H](O)CN2C(=O)[C@@H](NC(=O)CCOCCOCCOCCNC(=O)c2cc(Oc3ccc(NC(=O)Nc4cc(C(C)(C)C)on4)cc3)ccn2)C(C)(C)C)cc1 [MA49, reference compound]",,2.9 ± 0.3,,showed cytotoxic effects,100,66,53,37,29,15,80,80,,,52.9 ± 2.1,37.2 ± 0.6,28.8 ± 2.9,85.0,81 ± 0,"10 min - compound remaining % ([6]; listed as MA49_B): 71%; 20 min - compound remaining % ([6]; listed as MA49_B): 57%; 30 min - compound remaining % ([6]; listed as MA49_B): 38%; 60 min - compound remaining % ([6]; listed as MA49_B): 35%; 120 min - compound remaining % ([6]; 120 min, listed as MA49_B): 10%"

# Reference: publication PMC13210772, “Dual FLT3/MAPK14 Proteolysis-Targeting Chimera (PROTAC) Induces Potent Acute Myeloid Leukemia Cell Death” (Pharmaceuticals, 2026)
